Test results taken from patent US11964052B2, “Lipid compounds and lipid nanoparticle compositions” (SUZHOU ABOGEN BIOSCIENCES CO., LTD., priority 2021, dated 2024).

Tests used:
Format in all cases: physicochemical
[1] = Encapsulation efficiency of lipid nanoparticles, Quant-it Ribogreen RNA quantification assay; details: LNP with mRNA
Summary of the method: (§1)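 Lipids 50:10:38.5:1.5 (cationic:DSPC:chol:PEG) in EtOH + mRNA in citrate pH 4, 1:3 vol, microfluidic, 9–30 mL/min; total lipid:mRNA ~10:1–30:1 w/w. Dialysis to DPBS, 0.2 μm filter. DLS 173° backscatter; Ribogreen encapsulation.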

[2] = Lipid nanoparticle size and polydispersity by dynamic light scattering (Malvern Zetasizer Nano ZS); details: LNP of cationic lipid/DSPC/cholesterol/PEG-lipid 50:10:38.5:1.5 with mRNA
Summary of the method: as §1

[3] = Apparent pKa of LNP formulations, TNS fluorescence assay; details: LNP cationic lipid/DSPC/cholesterol/DMG-PEG 50/10/38.5/1.5 mol %, pH 3 to 9
Summary of the method: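 LNPs (cationic lipid/DSPC/cholesterol/DMG-PEG 50/10/38.5/1.5 mol %) at 0.1 mg/ml total lipid in citrate/phosphate/borate buffers, pH 3–9, with TNS added; fluorescence read at room temperature (ex 325, em 435 nm). Apparent pKa is the pH giving half-maximal fluorescence from a sigmoidal fit.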

Row | SMILES | Encapsulation Efficiency [1] [%] | polydispersity [2] | size (nm) [2] [nm] | Apparant Pka [3]
1 | CCCCCCCCC(CCCCCC)CC(=O)OCC(CCCCN(CC=C(C)C)CCN(CCO)C1CCC1)COC(=O)CC(CCCCCC)CCCCCCCC (centres unmarked) [Compound 78] | 93.77 | 0.017 | 159.72 | 6.166
2 | CCCCCCCCC(CCCCCC)CC(=O)OCC(CCCCN(CCN(CCO)C1CCC1)C1CCC1)COC(=O)CC(CCCCCC)CCCCCCCC (centres unmarked) [Compound 79] | 91.29 | 0.01 | 103.64 | 5.927
3 | CCCCCCCCC(CCCCCC)CC(=O)OCC(CCCCN(CCN(CCC)CCO)C1CCC1)COC(=O)CC(CCCCCC)CCCCCCCC (centres unmarked) [Compound 80] | 92.20 | 0.027 | 98.95 | 6.063
4 | CCCCCCCCCCC(=O)OCC(CCCCN(CCO)C1CCC1)COC(=O)CC(CCCCCC)CCCCCCCC (centres unmarked) [Compound 81] | 88.28 | 0.023 | 72.78 | 6.79
5 | CCCCCCCCCCC(=O)OCC(CCCCN(CCN(CCO)C1CCC1)C1CCC1)COC(=O)CC(CCCCCC)CCCCCCCC (centres unmarked) [Compound 82] | 92.38 | 0.079 | 84.46 | 6.621
6 | CCCCCCCCC(CCCCCC)CC(=O)OCC(CCCCN(CCCC)CCN(CCO)C1CCC1)COC(=O)CC(CCCCCC)CCCCCCCC (centres unmarked) [Compound 83] | 92.39 | 0.019 | 94.04 | 6.182
7 | CCCCCCCCCCC(=O)OCC(CCCCN(CCO)C1CCCC1)COC(=O)CC(CCCCCC)CCCCCCCC (centres unmarked) [Compound 84] | 93.44 | 0.01 | 83.05 | 6.785
8 | CCCCCCCCCCC(=O)OCC(CCCCN(CCO)C1CCCCC1)COC(=O)CC(CCCCCC)CCCCCCCC (centres unmarked) [Compound 85] | 92.17 | 0.066 | 74.14 | 6.438
9 | CCCCCCCCCCCCCCCC(=O)OCC(CCCCN(CCO)C1CCCCCC1)COC(=O)CC(CCCCCC)CCCCCCCC (centres unmarked) [Compound 87] | 92.47 | 0.044 | 64.08 | 6.372
10 | CCCCCCCCCCCCCCCC(=O)OCC(CCCCN(CCO)C1CCCCCCC1)COC(=O)CC(CCCCCC)CCCCCCCC (centres unmarked) [Compound 88] | 92.91 | 0.063 | 59.54 | 6.309
11 | CCCCC/C=C\C/C=C\CCCCCCCC(=O)OCC(CCCCN(CCO)C1CCC1)COC(=O)CC(CCCCCC)CCCCCCCC (centres unmarked) [Compound 89] | 92.56 | 0.04 | 69.36 | 6.926
12 | CCCCC/C=C\C/C=C\CCCCCCCC(=O)OCC(CCCCN(CCO)C1CCCC1)COC(=O)CC(CCCCCC)CCCCCCCC (centres unmarked) [Compound 90] | 93.02 | 0.043 | 70.38 | 7.024
13 | CCCCC/C=C\C/C=C\CCCCCCCC(=O)OCC(CCCCN(CCO)C1CCCCCC1)COC(=O)CC(CCCCCC)CCCCCCCC (centres unmarked) [Compound 91] | 92.11 | 0.111 | 63.89 | 6.608
14 | CCCCCCCCCCC(=O)OCC(CCCCN(CCO)C1CCCCCCC1)COC(=O)CC(CCCCCC)CCCCCCCC (centres unmarked) [Compound 93] | 85.30 | 0.111 | 63.32 | 6.377
15 | CCCCCCCCCCC(=O)OCC(CCCCN(CC=C(C)C)CCO)COC(=O)CC(CCCCCC)CCCCCCCC (centres unmarked) [Compound 94] | 93.93 | 0.04 | 77.15 | 6.793
16 | CCCCCCCCCCCCCCCC(=O)OCC(CCCCN(CCO)C1CCC1)COC(=O)CC(CCCCCC)CCCCCCCC (centres unmarked) [Compound 98] | 93.58 | 0.01 | 77.16 | 6.997
17 | CCCCCCCCCCCCCCCC(=O)OCC(CCCCN(CCO)C1CCCC1)COC(=O)CC(CCCCCC)CCCCCCCC (centres unmarked) [Compound 99] | 94.14 | 0.025 | 77.25 | 7.059
18 | CCCCC/C=C\C/C=C\CCCCCCCC(=O)OCC(CCCCN(CCO)C1CCCCC1)COC(=O)CC(CCCCCC)CCCCCCCC (centres unmarked) [Compound 100] | 91.24 | 0.055 | 64.54 | 6.666
19 | CCCCC/C=C\C/C=C\CCCCCCCC(=O)OCC(CCCCN(CCO)C1CCCCCCC1)COC(=O)CC(CCCCCC)CCCCCCCC (centres unmarked) [Compound 101] | 92.79 | 0.111 | 59.51 | 6.488
20 | CCCCCCCCC(CCCCCC)COC(=O)CCOCC(CN(CCC)CCN(CCO)C1CCCCCC1)OCCC(=O)OCC(CCCCCC)CCCCCCCC (centres unmarked) [Compound 106] | 93.17 | 0.046 | 65.31 | 6.035
21 | CCCCCCCCC(CCCCCC)CC(=O)OCC(CCCCN(CCN(CCO)CCCC)C1CCC1)COC(=O)CC(CCCCCC)CCCCCCCC (centres unmarked) [Compound 109] | 92.59 | 0.011 | 74 | 6.204
22 | CCCCCCCCC(CCCCCC)CC(=O)OCC(CCCCN(CCN(CCO)CCCCC)C1CCC1)COC(=O)CC(CCCCCC)CCCCCCCC (centres unmarked) [Compound 110] | 92.71 | 0.038 | 75.71 | 6.147
23 | CCCCCCCCC(CCCCCC)CC(=O)OCC(CCCCN(CCN(CCO)CCCCCC)C1CCC1)COC(=O)CC(CCCCCC)CCCCCCCC (centres unmarked) [Compound 111] | 92.54 | 0.048 | 62.77 | 6.072
